The text below walks through data of ChEMBL document CHEMBL5465560, “Selectivity Literature for EUbOPEN Chemogenomic Library” (2024).

For assay [1], the target named is T1, Ephrin type-B receptor 2 (Homo sapiens) (UniProt P29323).
T1 sequence (whole entry): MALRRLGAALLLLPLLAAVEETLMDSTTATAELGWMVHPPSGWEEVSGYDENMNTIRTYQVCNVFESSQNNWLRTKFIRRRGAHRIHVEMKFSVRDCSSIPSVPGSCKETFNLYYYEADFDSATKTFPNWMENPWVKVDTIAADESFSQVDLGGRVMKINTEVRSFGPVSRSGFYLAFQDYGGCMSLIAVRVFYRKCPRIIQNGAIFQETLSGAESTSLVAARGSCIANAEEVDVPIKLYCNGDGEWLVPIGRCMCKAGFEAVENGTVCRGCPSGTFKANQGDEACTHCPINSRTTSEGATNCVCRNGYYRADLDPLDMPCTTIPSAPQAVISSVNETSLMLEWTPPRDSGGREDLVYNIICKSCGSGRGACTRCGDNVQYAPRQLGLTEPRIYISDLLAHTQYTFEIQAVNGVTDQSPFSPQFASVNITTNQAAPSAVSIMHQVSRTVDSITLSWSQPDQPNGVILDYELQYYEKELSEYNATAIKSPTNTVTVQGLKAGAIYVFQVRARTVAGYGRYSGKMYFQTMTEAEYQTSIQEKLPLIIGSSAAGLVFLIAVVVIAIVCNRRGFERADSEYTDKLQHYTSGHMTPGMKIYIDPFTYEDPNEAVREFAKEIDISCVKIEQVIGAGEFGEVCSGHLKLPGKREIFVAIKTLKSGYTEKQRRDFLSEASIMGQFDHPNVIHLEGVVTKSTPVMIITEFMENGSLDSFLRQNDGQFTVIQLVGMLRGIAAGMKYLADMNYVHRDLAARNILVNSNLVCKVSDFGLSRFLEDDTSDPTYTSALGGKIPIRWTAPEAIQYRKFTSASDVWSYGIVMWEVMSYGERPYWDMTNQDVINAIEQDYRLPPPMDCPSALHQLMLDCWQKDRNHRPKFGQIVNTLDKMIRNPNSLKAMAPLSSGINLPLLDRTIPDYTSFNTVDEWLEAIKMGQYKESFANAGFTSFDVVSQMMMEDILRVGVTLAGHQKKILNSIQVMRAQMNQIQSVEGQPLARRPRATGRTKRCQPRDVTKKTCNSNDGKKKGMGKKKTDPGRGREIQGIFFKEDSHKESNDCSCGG
Put plainly: Selectivity interaction (KinomeScan (DiscoverX)) EUB0001619a EPHB2. The following applies: at 1 µM.

The target of assay [2] is Phosphatidylinositol 4,5-bisphosphate 3-kinase catalytic subunit beta isoform (Homo sapiens) (UniProt P42338). Put plainly: Selectivity interaction (KinomeScan (DiscoverX)) EUB0000695a PIK3CB. Conditions: at 100 nM.
Assay [3] has as its target Serine/threonine-protein kinase 24 (Homo sapiens) (UniProt Q9Y6E0). Conditions: at 10 µM.
The target in assay [4] is Serine/threonine-protein kinase SMG1 (Homo sapiens) (UniProt Q96Q15). Put plainly: Selectivity interaction (ActivX KiNativ screen (kinase selectivity in THP-1 cell lysates)) EUB0000639a SMG1. Type of assay: subcellular. The following applies: lysate, at 0.04 µM.
The target in assay [5] is Proto-oncogene tyrosine-protein kinase Src (Homo sapiens, UniProt P12931). Put plainly: Selectivity interaction (Kinase panel (Invitrogen)) EUB0000639a SRC. Conditions: at 200 nM.
The target of assay [6] is MAP kinase-interacting serine/threonine-protein kinase 1 (Homo sapiens) (UniProt Q9BUB5). Put plainly: Selectivity interaction (ProQinase) EUB0000171b MKNK1.
Assay [7] addresses Atypical kinase COQ8A, mitochondrial (Homo sapiens, UniProt Q8NI60). In words: Selectivity interaction (KinomeScan (DiscoverX)) EUB0001079a ADCK3. Conditions: at 1 µM.
In assay [8] the target is Sodium-dependent serotonin transporter (Homo sapiens, UniProt P31645). In words: Selectivity interaction (GPCR panel (PDSP screen)) EUB0001079a SLC6A4. The following applies: at 10 µM.
Assay [9] concerns Epidermal growth factor receptor (Homo sapiens), P00533 [T790M]. In words: (§1) Selectivity interaction (KinomeScan (DiscoverX)) EUB0000229b EGFR. Conditions: at 1 µM.
Assay [10] has as its system Epidermal growth factor receptor (Homo sapiens), P00533 [L858R]. The description is as §1. The following applies: at 1 µM.
The subject of assay [11] is Epidermal growth factor receptor (Homo sapiens), P00533 [G719C]. The description is as §1. The following applies: at 1 µM.
Assay [12] relates to Epidermal growth factor receptor (Homo sapiens), P00533 [L861Q]. The assay is described as §1. Conditions: at 1 µM.
Assay [13] has as its system Epidermal growth factor receptor (Homo sapiens), P00533 [UNDEFINED MUTATION]. The description is as §1. Conditions: at 1 µM.
For assay [14], the system named is Epidermal growth factor receptor (Homo sapiens), P00533 [G719S]. The description is as §1. The following applies: at 1 µM.
The target of assay [15] is Epidermal growth factor receptor (Homo sapiens, UniProt P00533). The assay is described as §1. Conditions: at 10 µM.
In assay [16] the test system is Epidermal growth factor receptor (Homo sapiens), P00533 [L858R,T790M]. The description is as §1. Conditions: at 1 µM.

MAP kinase-interacting serine/threonine-protein kinase 1 (Homo sapiens), sequence (Q9BUB5 whole entry, looked up): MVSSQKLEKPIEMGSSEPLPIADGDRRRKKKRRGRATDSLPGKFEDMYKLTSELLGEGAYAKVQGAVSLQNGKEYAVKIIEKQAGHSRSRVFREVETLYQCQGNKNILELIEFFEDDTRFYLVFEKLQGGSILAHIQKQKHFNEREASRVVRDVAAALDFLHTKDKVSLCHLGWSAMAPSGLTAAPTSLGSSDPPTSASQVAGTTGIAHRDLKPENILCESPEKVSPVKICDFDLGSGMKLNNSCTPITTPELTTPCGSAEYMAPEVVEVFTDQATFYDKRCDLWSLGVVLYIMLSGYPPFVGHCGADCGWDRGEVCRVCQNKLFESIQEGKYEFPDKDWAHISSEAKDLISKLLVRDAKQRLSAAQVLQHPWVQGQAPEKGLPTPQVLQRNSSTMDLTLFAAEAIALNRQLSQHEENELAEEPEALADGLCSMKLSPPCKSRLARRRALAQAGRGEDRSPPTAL
Epidermal growth factor receptor (Homo sapiens), P00533 [L858R], sequence (P00533 whole entry L858R): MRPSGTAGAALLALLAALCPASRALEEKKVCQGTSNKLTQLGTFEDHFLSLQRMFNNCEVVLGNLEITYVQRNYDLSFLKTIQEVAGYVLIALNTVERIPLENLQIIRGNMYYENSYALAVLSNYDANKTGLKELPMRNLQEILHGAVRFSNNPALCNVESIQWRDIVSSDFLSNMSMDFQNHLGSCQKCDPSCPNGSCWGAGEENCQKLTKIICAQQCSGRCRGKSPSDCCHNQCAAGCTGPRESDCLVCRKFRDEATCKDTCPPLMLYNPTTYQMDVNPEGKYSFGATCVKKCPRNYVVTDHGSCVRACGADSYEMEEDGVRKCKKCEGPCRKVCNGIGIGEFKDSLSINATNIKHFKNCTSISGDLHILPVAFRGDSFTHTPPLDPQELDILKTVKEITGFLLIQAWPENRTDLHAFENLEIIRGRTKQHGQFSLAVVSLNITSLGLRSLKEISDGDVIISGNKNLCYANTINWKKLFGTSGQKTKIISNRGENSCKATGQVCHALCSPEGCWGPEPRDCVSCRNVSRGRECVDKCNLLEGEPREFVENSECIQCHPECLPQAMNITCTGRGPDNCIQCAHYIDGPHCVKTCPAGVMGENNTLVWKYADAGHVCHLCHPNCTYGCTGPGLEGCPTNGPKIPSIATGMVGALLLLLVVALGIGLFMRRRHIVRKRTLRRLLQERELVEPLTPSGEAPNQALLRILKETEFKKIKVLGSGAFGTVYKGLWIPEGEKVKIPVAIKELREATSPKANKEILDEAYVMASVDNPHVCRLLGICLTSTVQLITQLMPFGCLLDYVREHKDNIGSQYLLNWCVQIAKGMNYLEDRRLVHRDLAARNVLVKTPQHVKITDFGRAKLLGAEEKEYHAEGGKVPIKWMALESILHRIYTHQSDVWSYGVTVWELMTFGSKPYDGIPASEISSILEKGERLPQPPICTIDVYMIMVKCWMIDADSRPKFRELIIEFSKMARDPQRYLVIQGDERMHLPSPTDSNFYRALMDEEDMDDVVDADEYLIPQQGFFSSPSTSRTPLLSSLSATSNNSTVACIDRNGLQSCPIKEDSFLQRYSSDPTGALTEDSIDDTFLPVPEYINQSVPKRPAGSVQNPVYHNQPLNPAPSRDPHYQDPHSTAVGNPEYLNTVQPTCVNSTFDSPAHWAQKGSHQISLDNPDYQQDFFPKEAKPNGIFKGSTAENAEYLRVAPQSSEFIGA
Sodium-dependent serotonin transporter, sequence (P31645 whole entry, looked up): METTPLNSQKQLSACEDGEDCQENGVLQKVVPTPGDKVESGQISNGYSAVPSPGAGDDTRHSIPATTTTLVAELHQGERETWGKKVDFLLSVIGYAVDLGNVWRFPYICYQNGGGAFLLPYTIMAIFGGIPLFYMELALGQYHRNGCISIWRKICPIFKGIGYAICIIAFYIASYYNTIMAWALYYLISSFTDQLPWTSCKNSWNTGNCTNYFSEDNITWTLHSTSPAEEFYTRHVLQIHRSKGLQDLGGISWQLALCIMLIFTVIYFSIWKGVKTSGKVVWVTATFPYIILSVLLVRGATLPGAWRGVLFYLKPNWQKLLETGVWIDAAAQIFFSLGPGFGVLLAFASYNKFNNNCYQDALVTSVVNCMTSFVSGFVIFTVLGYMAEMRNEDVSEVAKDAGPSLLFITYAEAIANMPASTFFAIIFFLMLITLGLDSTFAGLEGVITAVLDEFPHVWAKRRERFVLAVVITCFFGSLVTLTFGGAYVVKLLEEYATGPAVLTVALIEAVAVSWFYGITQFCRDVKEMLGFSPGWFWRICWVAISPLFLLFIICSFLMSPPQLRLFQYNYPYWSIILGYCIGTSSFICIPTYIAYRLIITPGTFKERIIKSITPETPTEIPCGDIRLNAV
Serine/threonine-protein kinase 24 (Homo sapiens), sequence (Q9Y6E0 whole entry, looked up): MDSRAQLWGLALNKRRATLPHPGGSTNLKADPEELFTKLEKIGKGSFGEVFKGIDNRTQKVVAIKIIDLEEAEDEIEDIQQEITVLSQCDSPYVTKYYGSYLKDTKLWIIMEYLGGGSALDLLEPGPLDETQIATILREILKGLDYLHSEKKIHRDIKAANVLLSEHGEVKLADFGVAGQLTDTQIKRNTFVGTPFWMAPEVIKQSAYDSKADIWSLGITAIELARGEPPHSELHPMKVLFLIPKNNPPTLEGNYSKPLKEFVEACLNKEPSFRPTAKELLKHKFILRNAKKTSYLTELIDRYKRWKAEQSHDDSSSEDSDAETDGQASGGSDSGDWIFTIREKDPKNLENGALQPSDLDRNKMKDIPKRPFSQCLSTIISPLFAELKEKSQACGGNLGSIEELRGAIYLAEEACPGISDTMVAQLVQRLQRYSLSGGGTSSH
Epidermal growth factor receptor (Homo sapiens), P00533 [G719S], sequence (P00533 whole entry G719S): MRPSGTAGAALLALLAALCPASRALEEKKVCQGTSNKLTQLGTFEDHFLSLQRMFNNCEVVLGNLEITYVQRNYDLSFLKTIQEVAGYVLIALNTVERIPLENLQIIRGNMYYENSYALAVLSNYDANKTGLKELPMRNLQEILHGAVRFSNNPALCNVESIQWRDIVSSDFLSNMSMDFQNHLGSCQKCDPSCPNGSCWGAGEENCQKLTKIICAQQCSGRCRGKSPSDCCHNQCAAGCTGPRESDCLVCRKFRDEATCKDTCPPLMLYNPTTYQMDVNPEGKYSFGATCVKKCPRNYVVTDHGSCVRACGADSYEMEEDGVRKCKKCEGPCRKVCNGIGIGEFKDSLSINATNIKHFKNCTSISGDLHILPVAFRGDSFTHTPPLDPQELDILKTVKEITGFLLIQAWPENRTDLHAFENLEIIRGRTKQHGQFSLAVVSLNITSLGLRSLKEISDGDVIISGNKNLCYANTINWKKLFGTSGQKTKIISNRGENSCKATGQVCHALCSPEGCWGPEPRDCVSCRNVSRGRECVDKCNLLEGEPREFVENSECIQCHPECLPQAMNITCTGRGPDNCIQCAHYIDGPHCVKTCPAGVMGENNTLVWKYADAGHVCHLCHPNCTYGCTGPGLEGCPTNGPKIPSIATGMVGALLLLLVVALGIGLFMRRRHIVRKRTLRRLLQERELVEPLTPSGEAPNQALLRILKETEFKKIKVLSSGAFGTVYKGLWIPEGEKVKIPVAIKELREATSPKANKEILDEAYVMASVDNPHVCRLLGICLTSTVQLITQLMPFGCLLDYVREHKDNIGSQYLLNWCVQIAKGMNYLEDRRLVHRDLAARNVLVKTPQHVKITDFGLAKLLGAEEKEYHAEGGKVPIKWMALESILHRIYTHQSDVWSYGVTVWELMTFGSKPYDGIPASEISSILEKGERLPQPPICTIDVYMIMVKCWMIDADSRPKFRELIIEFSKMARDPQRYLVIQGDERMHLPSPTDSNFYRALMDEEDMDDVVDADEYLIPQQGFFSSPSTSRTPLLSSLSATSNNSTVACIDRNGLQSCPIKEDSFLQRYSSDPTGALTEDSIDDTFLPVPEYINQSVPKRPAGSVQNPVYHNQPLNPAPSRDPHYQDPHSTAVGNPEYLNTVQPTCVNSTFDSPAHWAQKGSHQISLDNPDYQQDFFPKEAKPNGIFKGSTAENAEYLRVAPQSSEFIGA
Atypical kinase COQ8A, mitochondrial, sequence (Q8NI60 163-647 limits assumed): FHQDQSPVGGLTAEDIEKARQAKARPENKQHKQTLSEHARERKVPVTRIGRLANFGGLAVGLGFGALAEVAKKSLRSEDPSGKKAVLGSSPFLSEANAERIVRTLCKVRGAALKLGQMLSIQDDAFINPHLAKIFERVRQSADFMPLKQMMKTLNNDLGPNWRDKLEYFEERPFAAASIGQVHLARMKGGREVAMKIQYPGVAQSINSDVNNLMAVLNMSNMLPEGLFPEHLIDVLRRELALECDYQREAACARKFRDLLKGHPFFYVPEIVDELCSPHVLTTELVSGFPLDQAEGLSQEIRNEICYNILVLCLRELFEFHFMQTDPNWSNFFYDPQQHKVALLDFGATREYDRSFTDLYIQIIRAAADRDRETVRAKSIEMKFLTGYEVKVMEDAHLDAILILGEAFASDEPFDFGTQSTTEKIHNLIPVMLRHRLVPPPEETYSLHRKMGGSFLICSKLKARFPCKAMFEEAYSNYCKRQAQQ
Proto-oncogene tyrosine-protein kinase Src, sequence (P12931 2-536 limits assumed): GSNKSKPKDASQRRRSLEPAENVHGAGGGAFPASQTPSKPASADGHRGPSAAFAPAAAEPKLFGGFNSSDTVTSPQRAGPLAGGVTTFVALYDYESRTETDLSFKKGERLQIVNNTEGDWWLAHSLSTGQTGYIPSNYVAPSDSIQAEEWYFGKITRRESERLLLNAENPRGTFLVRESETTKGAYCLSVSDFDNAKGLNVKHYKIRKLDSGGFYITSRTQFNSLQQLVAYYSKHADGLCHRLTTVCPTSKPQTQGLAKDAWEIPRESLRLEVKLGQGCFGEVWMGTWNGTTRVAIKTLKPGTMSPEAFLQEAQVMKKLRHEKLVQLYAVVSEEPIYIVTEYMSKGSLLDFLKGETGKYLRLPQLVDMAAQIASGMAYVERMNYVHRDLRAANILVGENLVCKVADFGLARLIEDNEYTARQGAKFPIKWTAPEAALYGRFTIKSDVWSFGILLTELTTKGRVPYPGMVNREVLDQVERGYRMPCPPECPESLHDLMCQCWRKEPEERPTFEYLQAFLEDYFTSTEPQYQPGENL

For `N#Cc1cccc(-c2c[nH]c3ncnc(N4CCOCC4)c23)c1`, the % of control in assay [1] is 92%.

Molecule `Cc1cc(F)c(C(=O)Nc2cccc(-c3nncn3C(C)C)n2)cc1-n1cnc(C2CC2)c1` gave a % of control in assay [2] of 100%.

Consider `Cc1cc([C@@H](C)Nc2ccccc2C(=O)O)c2nc(N3CCOCC3)cc(=O)n2c1` [AZD-6482], for which the % of control in [3] came to 100%.

As for `CC[C@@H]1[C@H](F)C(=O)N[C@@H]1COc1nccc2cc(C(N)=O)c(OC)cc12` [ZIMLOVISERTIB], the % of inhibition in [4] came to 4.1%; in [5] it was 14.4%.

In the case of `C=CC(=O)Nc1cccc(C(=O)Nc2ccc(Nc3cc(-c4[nH]c(SC)nc4C)ccn3)cc2)c1`, the results for the % of control in [6] (at 1 µM) and in assay [6] (at 5 µM) were 90% and 55%, respectively.

`Nc1cnc(N2CCc3cc(S(=O)(=O)Nc4c(F)cc(Cl)cc4F)cc(N4CCCC4=O)c32)nc1` [TP-020n] had a % of control in assay [7] of 100%. Besides, in assay [8], the % of inhibition came to 9.34%.

For `COc1cc(N(C)c2ccnc3ccc(C(F)(F)F)cc23)cc(OC)c1OC`, the % binding was found to be 100% in [9]; 99% in [10]; 92% in assay [11]; 97% in assay [12]; 84% in [13]; 92% in [14]. Further, the % binding in assay [15] worked out at 96%; in assay [16], 86%.
